Test results from US11999727B2 (Tango Therapeutics, Inc., priority 2020, dated 2024).

Experiments:
PRMT5 [1] = target: T1, PRMT5 (Homo sapiens, UniProt O14744); experiment: PRMT5 biochemical IC50 assay with SAM as cofactor; conditions: PRMT5, SAM as cofactor; read-out: SAM IC50
T1 construct: purchased Viva (custom protein)

[2] = test system: HAP1 MTAP-deleted cell line; experiment: SDMA in-cell western assay, HAP1 MTAP-deleted; assay type: cell-based; conditions: for IC50: Homo sapiens, HAP1, SDMA in-cell western, HAP1 MTAP-deleted, read-out: HAP1 MTAP deleted IC50; for MTAP intact/deleted ratio: IC50 ratio HAP1 MTAP-intact / HAP1 MTAP-deleted, SDMA in-cell western
Summary of the method: (§1)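 IC50 values come from SDMA signal quantified by in-cell western in two HAP1 lines, one with native MTAP levels and one lacking MTAP.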

[3] = test system: HAP1 MTAP-intact cell line; experiment: SDMA in-cell western assay, HAP1 MTAP-intact; assay type: cell-based; conditions: Homo sapiens, HAP1, SDMA in-cell western, HAP1 MTAP-intact; read-out: MTAP HAP1 intact IC50
Summary of the method: as §1

PRMT5 [4] = target: T1, PRMT5; experiment: PRMT5 biochemical IC50 assay with MTA as cofactor; conditions: PRMT5, MTA as cofactor; read-out: MTA IC50
PRMT5 [5] = target: T1, PRMT5; experiment: PRMT5 biochemical IC50 assay with no cofactor; conditions: PRMT5, no cofactor; read-out: No Cofactor/rel IC50
Excerpt: Table 1 indicates IC50 values (μM) against PRMT5 for exemplary compounds in the presence of SAM as cofactor, with no cofactor, and with MTA as cofactor, respectively (columns 4-6). […] Ki values can be calculated from the IC50 values as described in the Examples section. As detailed in the Examples section, for the assay performed in the presence of SAM, IC50=Ki×1.5 (Ki=IC50/1.5).

[6] = test system: HAP1 MTAP-deleted cell line; experiment: Viability assay, MTAP-deleted cell line; assay type: cell-based; conditions: Homo sapiens, HAP1, viability assay, MTAP-deleted cell line; read-out: HAP1 MTAP deleted viability
Excerpt: Table 1 additionally indicates IC50 values in a viability assay for the MTAP-deleted cell line (column 10), indicating the effect of treatment with compound on cell survival.

T1 sequence (O14744 whole entry): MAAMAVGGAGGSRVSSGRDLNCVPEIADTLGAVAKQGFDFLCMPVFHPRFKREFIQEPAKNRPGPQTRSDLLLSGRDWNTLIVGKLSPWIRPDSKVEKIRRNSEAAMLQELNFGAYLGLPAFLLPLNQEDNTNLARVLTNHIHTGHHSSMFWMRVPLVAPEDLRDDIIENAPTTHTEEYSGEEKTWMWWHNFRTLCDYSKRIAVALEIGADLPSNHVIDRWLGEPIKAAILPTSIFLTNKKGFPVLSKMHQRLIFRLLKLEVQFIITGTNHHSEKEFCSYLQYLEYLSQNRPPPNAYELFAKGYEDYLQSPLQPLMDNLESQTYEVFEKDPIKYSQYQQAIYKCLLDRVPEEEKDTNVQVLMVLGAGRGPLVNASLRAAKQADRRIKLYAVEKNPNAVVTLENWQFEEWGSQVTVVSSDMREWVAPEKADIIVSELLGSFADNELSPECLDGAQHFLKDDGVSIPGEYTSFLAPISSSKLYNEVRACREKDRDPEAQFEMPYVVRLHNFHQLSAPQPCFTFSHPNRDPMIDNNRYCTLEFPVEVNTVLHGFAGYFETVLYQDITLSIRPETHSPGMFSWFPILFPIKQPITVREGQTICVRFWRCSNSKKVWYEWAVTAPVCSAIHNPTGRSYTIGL
T1 sequence (Q9BQA1 whole entry partner): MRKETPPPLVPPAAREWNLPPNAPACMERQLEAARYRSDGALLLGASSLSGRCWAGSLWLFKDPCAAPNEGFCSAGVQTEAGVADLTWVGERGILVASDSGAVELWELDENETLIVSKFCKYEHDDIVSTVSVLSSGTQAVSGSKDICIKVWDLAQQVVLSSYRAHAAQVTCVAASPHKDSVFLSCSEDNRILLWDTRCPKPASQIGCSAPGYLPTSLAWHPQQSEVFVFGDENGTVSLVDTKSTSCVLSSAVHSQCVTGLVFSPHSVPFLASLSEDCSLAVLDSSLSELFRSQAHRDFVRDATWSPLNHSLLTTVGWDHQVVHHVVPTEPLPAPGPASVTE

C[C@@H]1C[C@H](c2ccccc2)N(C(=O)C(=O)Nc2cncc(C(N)=O)c2)C[C@H]1C (racemic) [Compound 231, 5-[[2-[(2R,4R,5S)-4,5-dimethyl-2-phenyl-1-piperidyl]-2-oxo-acetyl]amino]pyridine-3-carboxamide]
IC50 (PRMT5 [1]): 50 to 500 nM
IC50 [2]: 100 to 1000 nM
MTAP intact/deleted ratio [2]: A (an IC50 ratio greater than or equal to 10 fold)
IC50 [3]: > 1000 nM
IC50 (PRMT5 [4]): < 50 nM
IC50 (PRMT5 [5]): 50 to 500 nM
IC50 [6]: > 10000 nM

C[C@@H]1CC[C@@H](c2ccc3nccn3c2)N(C(=O)C(=O)Nc2cncc(C(N)=O)c2)C1 (racemic) [Compound 234, rac-5-{2-[(2R,5S)-2-{Imidazo[1,2-a]pyridin-6-yl}-5-methylpiperidin-1-yl]-2-oxoacetamido}pyridine-3-carboxamide]
IC50 (PRMT5 [1]): 50 to 500 nM
IC50 [2]: > 1000 nM
MTAP intact/deleted ratio [2]: C (an IC50 ratio of less than 3 fold)
IC50 [3]: > 1000 nM
IC50 (PRMT5 [4]): 50 to 500 nM
IC50 (PRMT5 [5]): 50 to 500 nM
IC50 [6]: > 10000 nM

Cc1cc(NC(=O)C(=O)N2C[C@H](C)CC[C@H]2c2ccnn2C)cnc1N (racemic) [Compound 235, N-(6-amino-5-methyl-3-pyridyl)-2-[(2R,5S)-5-methyl-2-(2-methylpyrazol-3-yl)-1-piperidyl]-2-oxo-acetamide]
IC50 (PRMT5 [1]): 50 to 500 nM
IC50 [2]: > 1000 nM
MTAP intact/deleted ratio [2]: B (an IC50 ratio greater than or equal to 3 fold but lower than 10 fold)
IC50 [3]: > 1000 nM
IC50 (PRMT5 [4]): 50 to 500 nM
IC50 (PRMT5 [5]): 50 to 500 nM
IC50 [6]: > 10000 nM

COc1ccc([C@@H]2CC[C@@H](C)CN2C(=O)C(=O)Nc2cncc(C(N)=O)c2)cc1C#N (racemic) [Compound 237, rac-5-{2-[(2R,5S)-2-(3-Cyano-4-methoxyphenyl)-5-methylpiperidin-1-yl]-2-oxoacetamido}pyridine-3-carboxamide]
IC50 (PRMT5 [1]): 50 to 500 nM
IC50 [2]: > 1000 nM
MTAP intact/deleted ratio [2]: B (an IC50 ratio greater than or equal to 3 fold but lower than 10 fold)
IC50 [3]: > 1000 nM
IC50 (PRMT5 [4]): 50 to 500 nM
IC50 (PRMT5 [5]): 50 to 500 nM
IC50 [6]: > 10000 nM

C[C@@H]1CC[C@@H](c2ccc(Cn3ccnc3)cc2)N(C(=O)C(=O)Nc2cncc(C(N)=O)c2)C1 (racemic) [Compound 238, rac-5-{2-[(2R,5S)-2-{4-[(1H-Imidazol-1-yl)methyl]phenyl}-5-methylpiperidin-1-yl]-2-oxoacetamido}pyridine-3-carboxamide]
IC50 (PRMT5 [1]): 50 to 500 nM
IC50 [2]: 100 to 1000 nM
MTAP intact/deleted ratio [2]: A (an IC50 ratio greater than or equal to 10 fold)
IC50 [3]: > 1000 nM
IC50 (PRMT5 [4]): < 50 nM
IC50 (PRMT5 [5]): 50 to 500 nM
IC50 [6]: 1000 to 10000 nM

C[C@@H]1CC[C@@H](c2cccc(C#N)c2)N(C(=O)C(=O)Nc2cncc(C(N)=O)c2)C1 (racemic) [Compound 239, rac-5-{2-[(2R,5S)-2-(3-Cyanophenyl)-5-methylpiperidin-1-yl]-2-oxoacetamido}pyridine-3-carboxamide]
IC50 (PRMT5 [1]): 50 to 500 nM
IC50 [2]: < 100 nM
MTAP intact/deleted ratio [2]: A (an IC50 ratio greater than or equal to 10 fold)
IC50 [3]: > 1000 nM
IC50 (PRMT5 [4]): < 50 nM
IC50 (PRMT5 [5]): 50 to 500 nM
IC50 [6]: 1000 to 10000 nM

C[C@@H]1CC[C@@H](c2ccc3ccoc3c2)N(C(=O)C(=O)Nc2cncc(C(N)=O)c2)C1 (racemic) [Compound 241, rac-5-{2-[(2R,5S)-2-(1-Benzofuran-6-yl)-5-methylpiperidin-1-yl]-2-oxoacetamido}pyridine-3-carboxamide]
IC50 (PRMT5 [1]): 50 to 500 nM
IC50 [2]: < 100 nM
MTAP intact/deleted ratio [2]: A (an IC50 ratio greater than or equal to 10 fold)
IC50 [3]: > 1000 nM
IC50 (PRMT5 [4]): < 50 nM
IC50 (PRMT5 [5]): 50 to 500 nM
IC50 [6]: 1000 to 10000 nM

C[C@@H]1CC[C@@H](c2ccc(Cl)c(Cl)c2)N(C(=O)C(=O)Nc2cncc(C(N)=O)c2)C1 (racemic) [Compound 243, rac-5-{2-[(2R,5S)-2-(3,4-Dichlorophenyl)-5-methylpiperidin-1-yl]-2-oxoacetamido}pyridine-3-carboxamide]
IC50 (PRMT5 [1]): 50 to 500 nM
IC50 [2]: 100 to 1000 nM
MTAP intact/deleted ratio [2]: A (an IC50 ratio greater than or equal to 10 fold)
IC50 [3]: > 1000 nM
IC50 (PRMT5 [4]): < 50 nM
IC50 (PRMT5 [5]): 50 to 500 nM
IC50 [6]: 1000 to 10000 nM

C[C@@H]1CC[C@@H](c2ccc(C#N)c(C3CC3)c2)N(C(=O)C(=O)Nc2cncc(C(N)=O)c2)C1 (racemic) [Compound 244, rac-5-{2-[(2R,5S)-2-(4-Cyano-3-cyclopropylphenyl)-5-methylpiperidin-1-yl]-2-oxoacetamido}pyridine-3-carboxamide]
IC50 (PRMT5 [1]): 50 to 500 nM
IC50 [2]: < 100 nM
MTAP intact/deleted ratio [2]: A (an IC50 ratio greater than or equal to 10 fold)
IC50 [3]: > 1000 nM
IC50 (PRMT5 [4]): < 50 nM
IC50 (PRMT5 [5]): 50 to 500 nM
IC50 [6]: 1000 to 10000 nM

C[C@@H]1CC[C@@H](c2ccc(C#N)cc2)N(C(=O)C(=O)Nc2cncc(C(N)=O)c2)C1 (racemic) [Compound 246, rac-5-{2-[(2R,5S)-2-(4-Cyanophenyl)-5-methylpiperidin-1-yl]-2-oxoacetamido}pyridine-3-carboxamide]
IC50 (PRMT5 [1]): 50 to 500 nM
IC50 [2]: 100 to 1000 nM
MTAP intact/deleted ratio [2]: A (an IC50 ratio greater than or equal to 10 fold)
IC50 [3]: > 1000 nM
IC50 (PRMT5 [4]): < 50 nM
IC50 (PRMT5 [5]): 50 to 500 nM
IC50 [6]: 1000 to 10000 nM

C[C@@H]1CC[C@@H](c2cccc(F)c2)N(C(=O)C(=O)Nc2cncc(C(N)=O)c2)C1 (racemic) [Compound 247, rac-5-{2-[(2R,5S)-2-(3-Fluorophenyl)-5-methylpiperidin-1-yl]-2-oxoacetamido}pyridine-3-carboxamide]
IC50 (PRMT5 [1]): 50 to 500 nM
IC50 [2]: < 100 nM
MTAP intact/deleted ratio [2]: A (an IC50 ratio greater than or equal to 10 fold)
IC50 [3]: > 1000 nM
IC50 (PRMT5 [4]): < 50 nM
IC50 (PRMT5 [5]): 50 to 500 nM
IC50 [6]: 1000 to 10000 nM

C[C@@H]1CC[C@@H](c2cncc(F)c2)N(C(=O)C(=O)Nc2cncc(C(N)=O)c2)C1 (racemic) [Compound 248, rac-5-{2-[(2R,5S)-2-(5-Fluoropyridin-3-yl)-5-methylpiperidin-1-yl]-2-oxoacetamido}pyridine-3-carboxamide]
IC50 (PRMT5 [1]): > 500 nM
IC50 [2]: > 1000 nM
MTAP intact/deleted ratio [2]: B (an IC50 ratio greater than or equal to 3 fold but lower than 10 fold)
IC50 [3]: > 1000 nM
IC50 (PRMT5 [4]): 50 to 500 nM
IC50 (PRMT5 [5]): > 500 nM
IC50 [6]: > 10000 nM

CNC(=O)[C@@H]1CC[C@@H](c2ccccc2)N(C(=O)C(=O)Nc2cnc(N)c(C)c2)C1 (racemic) [Compound 249, 1-(2-((6-amino-5-methylpyridin-3-yl)amino)-2-oxoacetyl)-N-methyl-6-phenylpiperidine-3-carboxamide]
IC50 (PRMT5 [1]): 50 to 500 nM
IC50 [2]: > 1000 nM
MTAP intact/deleted ratio [2]: C (an IC50 ratio of less than 3 fold)
IC50 [3]: > 1000 nM
IC50 (PRMT5 [4]): 50 to 500 nM
IC50 (PRMT5 [5]): > 500 nM
IC50 [6]: > 10000 nM

C[C@@H]1CC[C@@H](c2ccc(OC(F)(F)F)cc2)N(C(=O)C(=O)Nc2cncc(C(N)=O)c2)C1 (racemic) [Compound 250, rac-5-{2-[(2R,5S)-5-Methyl-2-[4-(trifluoromethoxy)phenyl]piperidin-1-yl]-2-oxoacetamido}pyridine-3-carboxamide]
IC50 (PRMT5 [1]): 50 to 500 nM
IC50 [2]: < 100 nM
MTAP intact/deleted ratio [2]: A (an IC50 ratio greater than or equal to 10 fold)
IC50 [3]: > 1000 nM
IC50 (PRMT5 [4]): < 50 nM
IC50 (PRMT5 [5]): 50 to 500 nM
IC50 [6]: 1000 to 10000 nM

C[C@@H]1CC[C@@H](c2ccc(C(F)(F)F)cc2)N(C(=O)C(=O)Nc2cncc(C(N)=O)c2)C1 (racemic) [Compound 251, rac-5-{2-[(2R,5S)-5-Methyl-2-[4-(trifluoromethyl)phenyl]piperidin-1-yl]-2-oxoacetamido}pyridine-3-carboxamide]
IC50 (PRMT5 [1]): 50 to 500 nM
IC50 [2]: < 100 nM
MTAP intact/deleted ratio [2]: A (an IC50 ratio greater than or equal to 10 fold)
IC50 [3]: > 1000 nM
IC50 (PRMT5 [4]): < 50 nM
IC50 (PRMT5 [5]): 50 to 500 nM
IC50 [6]: 1000 to 10000 nM

C[C@@H]1CC[C@@H](c2ccc(Cn3cncn3)cc2)N(C(=O)C(=O)Nc2cncc(C(N)=O)c2)C1 (racemic) [Compound 252, rac-5-{2-[(2R,5S)-5-Methyl-2-{4-[(1H-1,2,4-triazol-1-yl)methyl]phenyl}piperidin-1-yl]-2-oxoacetamido}pyridine-3-carboxamide]
IC50 (PRMT5 [1]): 50 to 500 nM
IC50 [2]: 100 to 1000 nM
MTAP intact/deleted ratio [2]: A (an IC50 ratio greater than or equal to 10 fold)
IC50 [3]: > 1000 nM
IC50 (PRMT5 [4]): < 50 nM
IC50 (PRMT5 [5]): 50 to 500 nM
IC50 [6]: > 10000 nM

CNC(=O)[C@@H]1CC[C@H](c2ccccc2)N(C(=O)C(=O)Nc2cnc(N)c(C)c2)C1 (racemic) [Compound 253, 1-(2-((6-amino-5-methylpyridin-3-yl)amino)-2-oxoacetyl)-N-methyl-6-phenylpiperidine-3-carboxamide]
IC50 (PRMT5 [1]): 50 to 500 nM
IC50 [2]: > 1000 nM
MTAP intact/deleted ratio [2]: C (an IC50 ratio of less than 3 fold)
IC50 [3]: > 1000 nM
IC50 (PRMT5 [4]): 50 to 500 nM
IC50 (PRMT5 [5]): > 500 nM
IC50 [6]: > 10000 nM
